Test results from patent US10005774B2, “Syk inhibitors” (Gilead Sciences, Inc., priority 2013, dated 2018).
pIC50: −log10 of the molar value.

Each compound was assayed against Syk (Homo sapiens, UniProt P43405) (assay: High Throughput Syk Biochemical Assay (KinEASE TR-FRET)). Details: TABLE D, 20 μM ATP, 1 μM biotinylated peptide, 0.015 nM Syk, 30 min at room temperature, read-out: IC50.
Procedure, shortened: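 Compounds in DMSO dilution series were tested against Syk, which phosphorylates an XL665-tagged peptide. The phosphoproduct was bound by Eu-labelled phosphotyrosine antibody in a two-step endpoint format.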

**Q.** How did the pIC50 turn out when `Cc1cnn2cc(-c3ccc(N4CCOCC4)cc3)nc(O[C@H](C)[C@H]3CNC(=O)C3)c12` [(R)-4-((R)-1-((3-methyl-6-(4-morpholinophenyl)pyrazolo[1,5-a]pyrazin-4-yl)oxy)ethyl)pyrrolidin-2-one] was run?
**A.** 9.42

**Q.** `C[C@@H](Oc1cc(-c2cnn(C3CCOCC3)c2)cc2ncsc12)[C@H]1CNC(=O)C1` (stereo in doubt) [(R)-4-((R)-1-((5-(1-(tetrahydro-2H-pyran-4-yl)-1H-pyrazol-4-yl)benzo[d]thiazol-7-yl)oxy)ethyl)pyrrolidin-2-one] was tested. Which pIC50 did it give?
**A.** 9.16

**Q.** With `C[C@@H](Oc1nc(-c2ccc(N3CCOCC3)nc2)cc2ncn(C)c12)[C@H]1CNC(=O)C1` as the compound, how does the pIC50 read?
**A.** 7.94

**Q.** With `C[C@@H](Oc1nc(-c2cnn(C(F)F)c2)cc2ncn(C)c12)[C@H]1CNC(=O)C1` [(R)-4-((R)-1-(6-(1-(difluoromethyl)-1H-pyrazol-4-yl)-3-methyl-3H-imidazo[4,5-c]pyridin-4-yloxy)ethyl)pyrrolidin-2-one] as the compound, how does the pIC50 read?
**A.** 7.48

**Q.** `C[C@@H](Oc1nc(-c2ccccc2)cc2ncn(C)c12)[C@H]1CNC(=O)C1` [(R)-4-((R)-1-(3-methyl-6-phenyl-3H-imidazo[4,5-c]pyridin-4-yloxy)ethyl)pyrrolidin-2-one] was tested. Which pIC50 did it give?
**A.** 7.47

**Q.** `COc1ccc(-c2cc3ncn(CC(F)(F)F)c3c(O[C@H](C)[C@H]3CNC(=O)C3)n2)cc1OC` [(R)-4-((R)-1-(6-(3,4-dimethoxyphenyl)-3-(2,2,2-trifluoroethyl)-3H-imidazo[4,5-c]pyridin-4-yloxy)ethyl)pyrrolidin-2-one] was tested. Which pIC50 did it give?
**A.** 7.29

**Q.** How did the pIC50 turn out when `COCC[C@@H](Oc1nc(-c2cnn(C(C)(C)C)c2)cc2ncn(C)c12)[C@H]1CNC(=O)C1` [(R)-4-((R)-1-(6-(1-tert-butyl-1H-pyrazol-4-yl)-3-methyl-3H-imidazo[4,5-c]pyridin-4-yloxy)-3-methoxypropyl)pyrrolidin-2-one] was run?
**A.** 6.77

**Q.** How did the pIC50 turn out when `C[C@@H](Oc1nc(C2=CCCCC2)cc2ncn(C)c12)[C@H]1CNC(=O)C1` [(R)-4-((R)-1-(6-cyclohexenyl-3-methyl-3H-imidazo[4,5-c]pyridin-4-yloxy)ethyl)pyrrolidin-2-one] was run?
**A.** 6.91

**Q.** How did the pIC50 turn out when `CCn1ccc(-c2cc(O[C@H](C)[C@H]3CNC(=O)C3)c3scnc3c2)n1` [(R)-4-((R)-1-((5-(1-ethyl-1H-pyrazol-3-yl)benzo[d]thiazol-7-yl)oxy)ethyl)pyrrolidin-2-one] was run?
**A.** 8.47

**Q.** With `C[C@@H](Oc1cc(-c2cnn(C(C)(C)C)c2)cn2ncc(Cl)c12)[C@H]1CNC(=O)C1` [(R)-4-((R)-1-((6-(1-(tert-butyl)-1H-pyrazol-4-yl)-3-chloropyrazolo[1,5-a]pyridin-4-yl)oxy)ethyl)pyrrolidin-2-one] as the compound, how does the pIC50 read?
**A.** 9.57

**Q.** How did the pIC50 turn out when `COC[C@@H](Oc1nc(-c2cnn(C(C)(C)C)c2)cc2ncn(C)c12)[C@H]1CNC(=O)C1` [(R)-4-((S)-1-(6-(1-tert-butyl-1H-pyrazol-4-yl)-3-methyl-3H-imidazo[4,5-c]pyridin-4-yloxy)-2-methoxyethyl)pyrrolidin-2-one] was run?
**A.** 6.73

**Q.** With `CC(C)n1cc(-c2cc3ncn(C)c3c(O[C@H](C)[C@H]3CNC(=O)C3)n2)cn1` [(R)-4-((R)-1-(6-(1-isopropyl-1H-pyrazol-4-yl)-3-methyl-3H-imidazo[4,5-c]pyridin-4-yloxy)ethyl)pyrrolidin-2-one] as the compound, how does the pIC50 read?
**A.** 8.06

**Q.** `C[C@@H](Oc1nc(-c2ccc(N3CCNCC3)cc2)cc2ncn(C)c12)[C@H]1CNC(=O)C1` [(R)-4-((R)-1-(3-methyl-6-(4-(piperazin-1-yl)phenyl)-3H-imidazo[4,5-c]pyridin-4-yloxy)ethyl)pyrrolidin-2-one] was tested. Which pIC50 did it give?
**A.** 8.08

Same assay, conditions: table 'ALL NEW COMPOUNDS IN 2014', 20 μM ATP, 1 μM biotinylated peptide, 0.015 nM Syk, 30 min at room temperature, read-out: Syk IC50

**Q.** With `C[C@@H](Oc1nc(-c2ccc3c(cnn3CC(F)F)c2)cc2ncn(C3CC3)c12)[C@H]1CNC(=O)C1` [(R)-4-((R)-1-((3-cyclopropyl-6-(1-(2,2-difluoroethyl)-1H-indazol-5-yl)-3H-imidazo[4,5-c]pyridin-4-yl)oxy)ethyl)pyrrolidin-2-one] as the compound, how does the pIC50 read?
**A.** 8.74

**Q.** With `C[C@@H](Oc1cc(-c2cnn(CC(C)(C)O)c2)cc2ncn(C3CC3)c12)[C@H]1CNC(=O)C1` [(R)-4-((R)-1-((1-cyclopropyl-5-(1-(2-hydroxy-2-methylpropyl)-1H-pyrazol-4-yl)-1H-benzo[d]imidazol-7-yl)oxy)ethyl)pyrrolidin-2-one] as the compound, how does the pIC50 read?
**A.** 8.76

**Q.** How did the pIC50 turn out when `C[C@@H](Oc1cc(-c2ccn(C)n2)cc2ncn(C3CC3)c12)[C@H]1CNC(=O)C1` [(R)-4-((R)-1-((1-cyclopropyl-5-(1-methyl-1H-pyrazol-3-yl)-1H-benzo[d]imidazol-7-yl)oxy)ethyl)pyrrolidin-2-one] was run?
**A.** 7.98

**Q.** How did the pIC50 turn out when `C[C@@H](Oc1nc(-c2cnc(C3CCOCC3)s2)cc2ncn(C3CC3)c12)[C@H]1CNC(=O)C1` [(R)-4-((R)-1-((3-cyclopropyl-6-(2-(tetrahydro-2H-pyran-4-yl)thiazol-5-yl)-3H-imidazo[4,5-c]pyridin-4-yl)oxy)ethyl)pyrrolidin-2-one] was run?
**A.** 8.45

**Q.** How did the pIC50 turn out when `C[C@@H](Oc1cc(-c2cnn(C(C)(C)C)c2)cc2ncn(C3CC3)c12)[C@H]1CNC(=O)C1` [(R)-4-((R)-1-((5-(1-(tert-butyl)-1H-pyrazol-4-yl)-1-cyclopropyl-1H-benzo[d]imidazol-7-yl)oxy)ethyl)pyrrolidin-2-one] was run?
**A.** 9.34

**Q.** `C[C@@H](Oc1cc(-c2cnn(-c3ccncc3)c2)cc2ncn(C3CC3)c12)[C@H]1CNC(=O)C1` [(R)-4-((R)-1-((1-cyclopropyl-5-(1-(pyridin-4-yl)-1H-pyrazol-4-yl)-1H-benzo[d]imidazol-7-yl)oxy)ethyl)pyrrolidin-2-one] was tested. Which pIC50 did it give?
**A.** 8.12

**Q.** How did the pIC50 turn out when `COc1cc(-c2cc3ncn(C4CC4)c3c(O[C@H](C)[C@H]3CNC(=O)C3)n2)ccc1OC(F)F` [(R)-4-((R)-1-((3-cyclopropyl-6-(4-(difluoromethoxy)-3-methoxyphenyl)-3H-imidazo[4,5-c]pyridin-4-yl)oxy)ethyl)pyrrolidin-2-one] was run?
**A.** 8.28

**Q.** With `C[C@@H](Oc1nc(-c2cnc(C(F)(F)F)s2)cc2ncn(C3CC3)c12)[C@H]1CNC(=O)C1` [(R)-4-((R)-1-((3-cyclopropyl-6-(2-(trifluoromethyl)thiazol-5-yl)-3H-imidazo[4,5-c]pyridin-4-yl)oxy)ethyl)pyrrolidin-2-one] as the compound, how does the pIC50 read?
**A.** 7.17

**Q.** With `C[C@@H](Oc1cc(-c2ccc3c(c2)NCC3(C)C)cc2ncn(C3CC3)c12)[C@H]1CNC(=O)C1` [(R)-4-((R)-1-((1-cyclopropyl-5-(3,3-dimethylindolin-6-yl)-1H-benzo[d]imidazol-7-yl)oxy)ethyl)pyrrolidin-2-one] as the compound, how does the pIC50 read?
**A.** 8.04

**Q.** With `C[C@@H](Oc1cc(-c2cnc(C3CCOCC3)s2)cc2ncn(C3CC3)c12)[C@H]1CNC(=O)C1` [(R)-4-((R)-1-((1-cyclopropyl-5-(2-(tetrahydro-2H-pyran-4-yl)thiazol-5-yl)-1H-benzo[d]imidazol-7-yl)oxy)ethyl)pyrrolidin-2-one] as the compound, how does the pIC50 read?
**A.** 9.27

**Q.** `C[C@@H](Oc1cc(-c2ccncn2)cc2ncn(C3CC3)c12)[C@H]1CNC(=O)C1` [(R)-4-((R)-1-((1-cyclopropyl-5-(pyrimidin-4-yl)-1H-benzo[d]imidazol-7-yl)oxy)ethyl)pyrrolidin-2-one] was tested. Which pIC50 did it give?
**A.** 7.61

**Q.** `C[C@@H](Oc1nc(-c2cnc(C(C)(C)O)s2)cc2ncn(C3CC3)c12)[C@H]1CNC(=O)C1` [(R)-4-((R)-1-((3-cyclopropyl-6-(2-(2-hydroxypropan-2-yl)thiazol-5-yl)-3H-imidazo[4,5-c]pyridin-4-yl)oxy)ethyl)pyrrolidin-2-one] was tested. Which pIC50 did it give?
**A.** 8.12

**Q.** With `C[C@@H](Oc1nc(-c2cnn(-c3ccncc3)c2)cc2ncn(C3CC3)c12)[C@H]1CNC(=O)C1` as the compound, how does the pIC50 read?
**A.** 8.08
